Experiments:
[1] = target: Beta-1 adrenergic receptor (Homo sapiens, UniProt P08588)
Description: Agonist activity at human cloned adrenergic beta-1 receptor expressed in CHO cells assessed as cAMP accumulation

CHO = assay: Selectivity for human cloned adrenergic beta-1 receptor over human cloned adrenergic beta3 receptor expressed in CHO cells; assay type: cell-based
[2] = target: Beta-3 adrenergic receptor (Canis lupus familiaris) (UniProt O02662); assay: Agonist activity at dog cloned adrenergic beta3 receptor assessed as inhibition of carbachol-induced increase in intravesical pressure at 32 ug/kg, iv; assay type: functional
[3] = target: Beta-3 adrenergic receptor (Canis lupus familiaris, UniProt O02662); assay: Agonist activity at dog cloned adrenergic beta3 receptor expressed in CHO cells assessed as cAMP accumulation; assay type: functional, cell-based
[4] = target: Beta-3 adrenergic receptor (Homo sapiens, UniProt P13945); assay: Agonist activity at human cloned adrenergic beta3 receptor expressed in CHO cells assessed as cAMP accumulation; assay type: functional, cell-based
[5] = target: Beta-3 adrenergic receptor (Canis lupus familiaris) (UniProt O02662); assay: Agonist activity at dog cloned adrenergic beta3 receptor assessed as inhibition of carbachol-induced increase in intravesical pressure at 10 ug/kg, iv; assay type: functional

Sequence of Beta-3 adrenergic receptor (Canis lupus familiaris, UniProt O02662) (O02662 whole entry): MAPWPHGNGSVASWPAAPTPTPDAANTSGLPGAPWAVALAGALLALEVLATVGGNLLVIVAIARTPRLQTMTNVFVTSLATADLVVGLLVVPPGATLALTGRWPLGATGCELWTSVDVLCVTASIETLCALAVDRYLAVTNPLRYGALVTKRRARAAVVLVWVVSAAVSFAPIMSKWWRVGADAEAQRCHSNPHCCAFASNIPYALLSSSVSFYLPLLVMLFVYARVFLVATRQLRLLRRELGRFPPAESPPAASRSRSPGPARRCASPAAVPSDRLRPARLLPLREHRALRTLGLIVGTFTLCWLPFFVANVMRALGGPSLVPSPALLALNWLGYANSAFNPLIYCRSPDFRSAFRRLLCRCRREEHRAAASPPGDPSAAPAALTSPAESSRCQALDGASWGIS
Sequence of Beta-3 adrenergic receptor (Canis lupus familiaris) (O02662 whole entry): as above
Sequence of Beta-3 adrenergic receptor (Homo sapiens, UniProt P13945) (P13945 whole entry): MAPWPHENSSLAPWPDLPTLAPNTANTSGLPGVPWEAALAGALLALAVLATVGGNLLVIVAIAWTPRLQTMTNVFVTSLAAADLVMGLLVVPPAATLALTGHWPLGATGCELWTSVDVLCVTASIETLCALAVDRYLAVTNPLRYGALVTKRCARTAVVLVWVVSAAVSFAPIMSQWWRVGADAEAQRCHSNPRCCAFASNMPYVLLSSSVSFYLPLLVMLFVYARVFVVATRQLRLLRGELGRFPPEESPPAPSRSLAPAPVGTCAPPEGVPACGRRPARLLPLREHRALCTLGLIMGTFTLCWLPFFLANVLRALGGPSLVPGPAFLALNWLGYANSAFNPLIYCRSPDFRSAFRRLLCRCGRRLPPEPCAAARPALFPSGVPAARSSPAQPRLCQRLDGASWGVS
Sequence of Beta-1 adrenergic receptor (P08588 whole entry): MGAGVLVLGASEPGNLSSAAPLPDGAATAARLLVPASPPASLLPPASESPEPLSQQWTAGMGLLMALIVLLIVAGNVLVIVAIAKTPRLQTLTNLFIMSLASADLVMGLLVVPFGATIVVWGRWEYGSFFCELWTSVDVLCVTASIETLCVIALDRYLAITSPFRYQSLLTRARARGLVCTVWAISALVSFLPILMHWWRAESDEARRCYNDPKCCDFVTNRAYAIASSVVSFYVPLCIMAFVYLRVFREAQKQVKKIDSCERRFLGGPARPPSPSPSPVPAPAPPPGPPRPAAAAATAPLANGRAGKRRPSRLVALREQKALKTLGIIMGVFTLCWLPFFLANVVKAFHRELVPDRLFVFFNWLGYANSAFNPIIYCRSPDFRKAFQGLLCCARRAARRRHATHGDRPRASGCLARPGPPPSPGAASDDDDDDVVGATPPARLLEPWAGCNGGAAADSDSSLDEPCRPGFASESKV

## CC(C)(C)C(=O)Nc1ccc(Oc2cccc(CCNC[C@H](O)c3cccc(Cl)c3)c2)cc1C(=O)O
[1]
  EC50: 620 nM
CHO
  Ratio EC50: 135
[2]
  inhibition: 30%
[3]
  EC50: 1.6 nM
[4]
  EC50: 4.6 nM

## CC(=O)Nc1ccc(Oc2cccc(CCNC[C@H](O)c3cccnc3)c2)cc1C(=O)O
[1]
  EC50: 190 nM
CHO
  Ratio EC50: 16
[4]
  EC50: 12 nM

## CC(C)Oc1ccc(Oc2cccc(CCNC[C@H](O)c3cccc(Cl)c3)c2)cc1C(=O)O
[1]
  EC50: 810 nM
CHO
  Ratio EC50: 238
[5]
  inhibition: 43%
[3]
  EC50: 3.2 nM
[4]
  EC50: 3.4 nM

## Cc1ccc(Oc2cccc(CCNC[C@H](O)c3cccc(Cl)c3)c2)cc1C(=O)O
[1]
  EC50: 550 nM
CHO
  Ratio EC50: 42
[4]
  EC50: 13 nM

## O=C(O)c1ccc(Oc2cccc(CCNC[C@H](O)c3cccc(Cl)c3)c2)cc1
[1]
  EC50: > 100 nM
[4]
  EC50: 60 nM

## CC(=O)Nc1cc(Oc2cccc(CCNC[C@H](O)c3cccc(Cl)c3)c2)cc(C(=O)O)c1
[1]
  EC50: 240 nM
CHO
  Ratio EC50: 37
[4]
  EC50: 6.5 nM

## COc1ccc(Oc2cccc(CCNC[C@H](O)c3cccc(Cl)c3)c2)cc1C(=O)O
[1]
  EC50: 510 nM
CHO
  Ratio EC50: 46
[4]
  EC50: 11 nM

## C[C@H](Cc1cccc(Oc2cccc(C(=O)O)c2)c1)NC[C@H](O)c1cccc(Cl)c1
[1]
  EC50: 28 nM
CHO
  Ratio EC50: 15
[4]
  EC50: 1.9 nM

## CC(=O)Nc1ccc(Oc2cccc(CCNC[C@H](O)c3cccc(Cl)c3)c2)cc1C(=O)O
[1]
  EC50: 380 nM
CHO
  Ratio EC50: 53
[4]
  EC50: 7.2 nM

## O=C(O)c1cc(Oc2cccc(CCNC[C@H](O)c3cccnc3)c2)ccc1F
[1]
  EC50: 840 nM
CHO
  Ratio EC50: 27
[4]
  EC50: 31 nM

## O=C(O)c1cc(Oc2cccc(CCNC[C@H](O)c3cccc(Cl)c3)c2)ccc1F
[1]
  EC50: 140 nM
CHO
  Ratio EC50: 15
[4]
  EC50: 9.4 nM

## O=C(O)c1cc(NC(=O)c2ccccc2)cc(Oc2cccc(CCNC[C@H](O)c3cccc(Cl)c3)c2)c1
[1]
  EC50: 190 nM
CHO
  Ratio EC50: 9
[4]
  EC50: 21 nM

## O=C(O)c1cc(Oc2cccc(CCNC[C@H](O)c3cccc(Cl)c3)c2)ccc1N1CCCC1=O
[1]
  EC50: > 1000 nM
CHO
  Ratio EC50: > 152
[2]
  inhibition: 84%
[3]
  EC50: 1.9 nM
[4]
  EC50: 6.6 nM

## O=C(Nc1ccc(Oc2cccc(CCNC[C@H](O)c3cccc(Cl)c3)c2)cc1C(=O)O)c1ccccc1
[1]
  EC50: 130 nM
CHO
  Ratio EC50: 15
[4]
  EC50: 8.6 nM

## COc1ccc(Oc2cccc(CCNC[C@H](O)c3cccnc3)c2)cc1C(=O)O
[1]
  EC50: 690 nM
CHO
  Ratio EC50: 12
[4]
  EC50: 56 nM

## O=C(O)c1cccc(Oc2cccc(CCNC[C@H](O)c3cccc(Cl)c3)c2)c1
[1]
  EC50: > 100 nM
CHO
  Ratio EC50: > 7.1
[4]
  EC50: 14 nM

## O=C(O)c1cc(Oc2cccc(CCNC[C@H](O)c3cccc(Cl)c3)c2)ccc1Cl
[1]
  EC50: 64 nM
CHO
  Ratio EC50: 6.7
[4]
  EC50: 9.5 nM
